Reference: patent US10118943B2, “Compounds and methods for inhibiting cell death” (Ramot at Tel-Aviv University Ltd., priority 2012, dated 2018)
“Also recorded” adds a separate entry of the source.

What was measured:
primary cortical neurons = assay: PSD-95 density in primary cortical neuron culture; format: cell-based, rat
Experimental: Methods: 1. Primary cultures of neurons were prepared as follows. Newborn rats were sacrificed on postnatal day 1. Cerebral cortex tissue was then dissected and dissociated individually from each pup with the Papain Dissociation System (PDS; Worthington Biochemical Corporation) according to the manufacturer's instructions. 2. Cells were fixed with ice cold methanol, blocked with 2% bovine serum albumin (BSA) and 5% normal goat serum in Tris buffered saline containing tween 20 (TBS-T; 20 mM Tris pH 7.5, 136.8 mM NaCl, and 0.05% v/v Tween 20), and incubated with primary antibody followed by the appropriate secondary antibody. 3. Primary antibodies that were used include: monoclonal anti PSD-95 (ab-2723, Abcam), monoclonal anti Tyr-α-tubulin antibody (YL1/2) (VMA1864, Abcys, Paris, France), polyclonal anti Glu-α-tubulin antibody (L4) (AbC0101, Abcys, Paris, France), DyLight 488-labeled secondary goat anti-mouse IgG, DyLight 633-labeled secondary goat anti-rabbit IgG (KPL, Gaithersburg, Md., USA), Cy3-conjugated secondary goat anti-Rat IgG, (Jackson ImmunoResearch). 4. Images were collected with a Leica SP5 confocal laser scanning microscope (Mannheim, Germany) with 63× oil immersion optics, laser lines at 488, 561, 633 nm. Identical confocal laser scanning microscopy (CLSM) parameters (e.g., scanning line, laser light, gain, and offset etc.) were used for control and NAP treated cells.
For instance, a PSD-95 expression assay using primary cortical neuron cultures established from suitable animals may be performed to confirm a compound's activity in promoting cell plasticity. More specifically, primary cultures of neurons are prepared by first taking cerebral cortex tissue from newborn rats on postnatal day 1. The cerebral cortex tissue is then dissected and dissociated individually from each animal. Cells are fixed with ice cold methanol, blocked (e.g., with bovine serum albumin (BSA) and normal goat serum), and incubated with primary antibody (e.g., monoclonal antibody against PSD-95), optionally followed by the appropriate secondary antibody for imaging purposes. Images of primary neuronal cultures are taken and compared between cultures with or without being exposed to a test compound. An increased PSD-95 expression is indicative of the test compound being capable of promoting or protecting cell plasticity, especially neuronal plasticity.
Cerebral cortex tissue from newborn rats was dissected and dissociated individually from each pup with the Papain Dissociation System (PDS), (Worthington Biochemical Corporation) according to the manufacturer's instructions. Cortical neurons were maintained in Neurobasal medium (NB), (Gibco) supplemented with NeuroCult B27-SM1 ([…]), 1% Glutamax (Gibco), and grown on poly-D-lysine-coated cell culture glass cover slips.
Images were collected with a Leica SP5 confocal laser scanning microscope (Mannheim, Germany) with 63× oil immersion optics, laser lines at 488, 561, 633 nm or with LSM 510 META (Zeiss, Jena, Germany) confocal laser scanning microscope with 63× oil immersion optics, laser lines at 488, 568, 633 nm. When comparing fluorescence intensities, identical CLSM parameters (e.g., scanning line, laser light, gain, and offset etc.) were used. All of the fluorescent signals acquired were above the autofluorescent background as measured from a control slide stained with secondary antibody without a primary antibody. To compare the relative levels of protein expression, the average integrated density (AID) image analysis procedure was used for cell immunostains. In brief, integrated density is defined by the sum of the values of the pixels in the selected region of interest (ROI). This is equivalent to the product of Area and Mean Gray Value. AID for the positive stained area was determined by measuring the fluorescent intensity of the ROI, which is above the positive cut-off intensity. […]

PC12 cells [1] = assay: PC12 cell survival assay, zinc toxicity, MTS (Example 1); conditions: for protection against zinc-induced PC12 cell death (MTS) with EB3 silenced: RNA silencing of EB3
Experimental: PC12 cells (Pheochromocytoma cells) (ATCC, Bethesda, Md., USA) were seeded at 3×10^4 cells/cm^2 on poly-L-Lysine coated plastic tissue culture dishes (Corning, Lowell, Mass., USA) to form an adherent monolayer. Cells were maintained in Dulbecco's modified Eagle's medium (DMEM) supplemented with 10% horse serum (HS), 5% fetal calf serum (FCS), 2 mM glutamine, 100 U/ml penicillin and […] streptomycin (Biological Industries, Beit Haemek, Israel). PC12 differentiation was induced by nerve growth factor (NGF, Sigma) at concentrations of 50 ng/ml by replacing half of the medium every other day until the cells acquired a differentiated morphology. Differentiated cells were defined as bearing two or more neurites with lengths equal to or more than twice the diameter of the cell body (P. Lamoureux et al., The Journal of cell biology 110, 71 (January, 1990)). The cells were incubated in 5% CO2 in a humidified incubator at 37° C. The cells were sub-cultured every 5 days at a 4:1 split ratio by pipetting. The medium was changed every 2 or 3 days after adhesion.
Transfections were performed using Lipofectamine RNAiMAX (Invitrogen). Transfection was carried out according to manufacturer's protocol. For rat MAPRE3 knockdown, PC12 cells or neurons were plated in growth medium without antibiotics at concentration of 10^4 cells/0.32 cm^2 such that they will be 30-50% confluent at the time of transfection. To obtain the highest transfection efficiency and low non-specific effects, siRNA transfection was performed in the following optimized conditions: 50 nM for neurons and 25 nM PC12 of each siRNA construct with 0.2 μl Lipofectamine RNAiMAX (Invitrogen) was added per well of the 96-well plate and scaled up for different 24 or 6-well plates, according to the manufacturer's instructions. The medium was changed one day after transfection. 48 and 72 hours later, cells were harvested to assay for gene knockdown at the RNA and protein levels.
The cells were incubated for 4 hrs at 37° C. 5% CO2. Survival was measured using the MTS assay.
Metabolic activity of cells was measured by the CellTiter 96® Aqueous Non-Radioactive Cell Proliferation kit in accordance with the manufacturer's instructions (Promega). The assay uses a colorimetric method for determining the number of viable cells employing a tetrazolium compound [3-(4,5-dimethylthiazol-2-yl)-5-(3-carboxymethoxyphenyl)-2-(4-sulfophenyl)-2H-tetrazolium, MTS] and an electron-coupling reagent, phenazine methosulfate (PMS). MTS is bio-reduced by cells into a formazan product that is detected at 490 nm. The conversion of MTS into the formazan form is accomplished by dehydrogenase enzymes found in metabolically active cells. Thus, the quantity of formazan product as measured by the amount of 490 nm absorbance is directly proportional to the number of living cells in culture (A. H. Cory, T. C. Owen, J. A. Barltrop, J. G. Cory, Cancer Commun 3, 207 (July, 1991)).

rat brain extracts = assay: NAP / D-SAL affinity chromatography with rat brain extracts, mass spectrometry; format: binding; conditions: repeated twice
Experimental: The affinity chromatography column included SulfoLink® Immobilization Kit for Peptides (44999, Thermo Scientific, Rockford, Ill., USA). Binding of […] was performed according to the manufacturers' instruction. Recombinant protein was loaded (2 mg/mL) on the columns (2 mL) and incubated overnight at 4° C.; the columns were then washed with phosphate-buffered saline until all unbound protein was eluted [as confirmed by protein assay (Bradford; Bio-Rad Laboratories, Mannheim, Germany)]. NAP-binding proteins were eluted in IgG Elution buffer (pH 2.8) (Thermo scientific). […] Sodium dodecyl sulfate-polyacrylamide gel electrophoresis (SDS-PAGE) was then performed followed by western blot analysis in order to detect the protein (R. Zamostiano et al., J Biol Chem 276, 708 (Jan. 5, 2001)).
Affinity chromatography was carried out as above with rat brain extracts as before (34, 36). However, several additional experiments were undertaken and mass spectrometry was employed to identify additional potential NAP-interacting proteins that elute from the affinity column.

PC12 cells [2] = conditions: ZnCl2 400 μM, 4 h
Experimental: FIG. 15: Rat pheochromocytoma cells (PC12) were seeded on Poly-D-Lysine coated 96-well tissue culture dishes in high concentration (30,000 cells/well). On the day of the experiment the cells were treated with ZnCl2 (400 μM) either alone or in combination with different concentration of SKIP for 4 h. After 4 h the cell viability was analyzed by MTS assay. […] All values are from one experiment performed in hexplicate.
Rat pheochromocytoma cell (PC12, ATCC, Bethesda, Md., USA) were grown in 10-cm tissue culture dishes (Corning). The base medium for this cell line was RPMI-1640 Medium (Invitrogen) supplemented with 10% heat-inactivated horse serum, 5% fetal bovine serum and solution containing 100 U/ml penicillin together with […] streptomycin (Biological Industries, Beit Haemek, Israel). The cells were incubated in 95% air; 5% CO2 in a humidified incubator at 37° C. The medium was changed every 2 to 3 days. The cells were subcultured when cell density reached 4×10^6 cells/ml. The cells were split in a ratio of 1:4.
On the day before the experiment cells were to be harvested, re-suspended and seeded on tissue culture dishes. For cell viability measurements, cells were seeded on Poly-D-Lysine coated 96-well tissue culture dishes (Sigma-Aldrich) at a concentration of 3×10^4 cells/well.
The cell viability is measured by colorimetric method that determines the number of viable cells in culture. This method is based on the bio-reduction of the tetrazolium compound [3-(4,5-dimethylthiazol-2-yl)-5-(3-carboxymethoxyphenyl)-2-(4-sulfophenyl)-2H-tetrazolium; MTS] by living cells into a colored formazan product. This reaction is occurring in the presence of an electron coupling reagent (phenazine ethosulfate; PES). The amount of formazan product is measured by ELISA plate reader at 490 nm and is directly proportional to the number of living cells in culture (CellTiter 96® AQueous One Solution Cell Proliferation Assay; Promega, Madison, Wis., USA).

PC12 cells [3] = conditions: previously published data, read-out: EC50 for zinc cell killing effect; cited from earlier work

| Compound | effect on PSD-95 expression with EB3 silencing (primary cortical neurons; 10^−12M NAP, 48 hours siRNA against EB3) | increase in PSD-95 expression (primary cortical neurons; 10^−12M, 2 hrs, 13 DIV cortical neurons (FIG. 10d)) [%] | PSD-95 expression in dendrites (FIG. 11) (primary cortical neurons; 10^−12M, DIV 13, 2 hours) | density of PSD-95 puncta vs vehicle controls (primary cortical neurons; NAP 10^−18M-10^−9M, DIV 13, 2 hrs) | peak effect on density of PSD-95 over control (primary cortical neurons; NAP concentration of 10-12M, 2 hours) [%] | derivative peptides effect on PSD-95 density vs vehicle controls (FIG. 10c) (primary cortical neurons; neurons treated for 2 hrs) | protection against cell death induced by zinc toxicity (MTS survival) (PC12 cells [1]; 400 μM zinc, 4 hrs, peptide 10^−9M) | protection against cell death induced by zinc toxicity (MTS) (PC12 cells [1]; 400 μM zinc, 4 hrs, peptide 10^−15M) | protection against zinc-induced PC12 cell death (MTS) with EB3 silenced (PC12 cells [1]; 500 microM zinc, NAP 10^−15M) | protection against zinc-induced PC12 cell death (MTS) with EB3 silenced (PC12 cells [1]; 500 microM zinc, NAP 10^−15M, listed as NAPVSIPQ) | protection against zinc-induced PC12 cell death (MTS) (PC12 cells [1]; 500 microM zinc, NAP 10^−15M, control situations (non-specific siRNA, no treatment)) | interaction with drebrin (affinity column eluate, mass spectrometry) (rat brain extracts) | cell death from zinc treatment (PC12 cells [2]) [%] | EC50 (PC12 cells [3]) [µM] | zinc concentration at which significant cell death was observed (PC12 cells [1]; PC12 cells, 4 hrs, data not shown) [µM] | reduction of cell viability by zinc (PC12 cells [1]; vs control without zinc) [%] |
| --- | --- | --- | --- | --- | --- | --- | --- | --- | --- | --- | --- | --- | --- | --- | --- | --- |
| CC[C@H](C)[C@H](NC(=O)[C@H](CO)NC(=O)[C@@H](NC(=O)[C@@H]1CCCN1C(=O)[C@H](C)NC(=O)[C@@H](N)CC(N)=O)C(C)C)C(=O)N1CCC[C@H]1C(=O)N[C@@H](CCC(N)=O)C(=O)O [NAP] | abolished NAP activity; also recorded: completely inhibited | 75 | enhances PSD-95 expression | significantly increased | 50 | significantly increased | significant protection effect; also recorded: significantly increased survival | significant protection effect | not in the presence of EB3 silencing | does not protect | protected against by NAP treatment; also recorded: protects in the control situations | specific interaction | – | – | – | – |
| [Cl-].[Cl-].[Zn+2] [zinc, ZnCl2] | – | – | – | – | – | – | – | – | – | – | – | – | ~20 | 308 ± 38 | > 200 | ~25 |
